{"source": "patent US10513694B2", "about": "“Thienopyrrole compounds and uses thereof” (PROMEGA CORPORATION, priority 2015, dated 2019)", "key": {"[1]": {"tested_on": "UltraGlo luciferase", "assay": "Specificity of inhibition of Nluc luciferase: UltraGlo luciferase", "type": "biochemical, firefly", "details": "RT 2 hrs", "description": "The following example describes the specificity of disclosed thienopyrrole compounds, JRW-0251, JRW-0344, and JRW-0147, to inhibit Nluc luciferase activity versus firefly luciferase activity, e.g., ULTRAGLO® luciferase. In a Corning 3570 assay plate, a solution containing 1 μM luciferin in Luciferase Detection Reagent (Promega Corporation V865/859) was added to the assay wells. An equal volume of titrations the thienopyrrole compounds, JRW-0251, JRW-0344, and JRW-0147 were then added to the wells. The reactions were incubated at RT for 2 hrs, and luminescence was measured on Tecan M1000 Pro plate reader."}, "[2]": {"biological_target": "Nluc (Oplophorus gracilirostris, UniProt Q9GV45, A31E/A60N/A81I/F95D/I117V/K70R/L54V/L99Q/M102K/N193R/P142E/Q151K/Q38R/Q45L/V71I/Y165I)", "sequence (Q9GV45 28-196 with tags or gaps with the stated changes limits assumed)": "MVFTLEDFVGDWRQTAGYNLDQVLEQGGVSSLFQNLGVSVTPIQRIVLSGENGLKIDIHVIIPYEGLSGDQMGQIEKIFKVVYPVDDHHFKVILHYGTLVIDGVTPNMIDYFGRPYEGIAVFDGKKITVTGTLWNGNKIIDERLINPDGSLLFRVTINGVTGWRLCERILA", "assay": "Multiplex RealTime-Glo / Caspase-Glo 3/7 in DMEM media", "type": "biochemical", "parameters": "purchased Promega Corporation", "details": "for Avg (luminescence), 1 hour: RealTime-Glo reagent in DMEM + Caspase-Glo 3/7", "description": "In a Corning 3570 assay plate, 1× REAL-TIME-GLO™ MT Cell Viability assay reagent was prepared in 40 μL DMEM media (n=3) and incubated overnight. Next, 40 μL of a titration of JRW-0147 or JRW-0344 (2× concentration in CASPASE-GLO® 3/7 Assay Reagent (Promega Corporation)) was added. The reactions were incubated at room temperature, and luminescence determined at 1 hour."}}}
{"smiles": "CCN(C(=O)Cn1c(C(=O)N[C@H]2CC[C@H](C(=O)NCCCCCCS(=O)(=O)[O-])CC2)cc2sccc21)c1cccc(C)c1.[Na+]", "note": "[JRW-0344, Sodium 6-(trans-4-(4-(2-(ethyl(m-tolyl)amino)-2-oxoethyl)-4H-thieno[3,2-b]pyrrole-5-carboxamido)cyclohexane-1-carboxamido)hexane-1-sulfonate]", "values": [{"measurement": "Inhibition of firefly luciferase activity (Table 3)", "setting": "[1]", "value": "did not inhibit the firefly luciferase activity"}, {"measurement": "UltraGlo luciferase, Avg (luminescence)", "setting": "[1]; [cmpd] 0.1953125 μM", "value": 83526.33}, {"measurement": "UltraGlo luciferase, S/B", "setting": "[1]; [cmpd] 0.1953125 μM", "value": 1.00}, {"measurement": "UltraGlo luciferase, Avg (luminescence)", "setting": "[1]; [cmpd] 0.390625 μM", "value": 82945.67}, {"measurement": "UltraGlo luciferase, S/B", "setting": "[1]; [cmpd] 0.390625 μM", "value": 1.00}, {"measurement": "UltraGlo luciferase, Avg (luminescence)", "setting": "[1]; [cmpd] 0.78125 μM", "value": 82135.67}, {"measurement": "UltraGlo luciferase, S/B", "setting": "[1]; [cmpd] 0.78125 μM", "value": 0.99}, {"measurement": "UltraGlo luciferase, Avg (luminescence)", "setting": "[1]; [cmpd] 1.5625 μM", "value": 81368.33}, {"measurement": "UltraGlo luciferase, S/B", "setting": "[1]; [cmpd] 1.5625 μM", "value": 0.98}, {"measurement": "UltraGlo luciferase, Avg (luminescence)", "setting": "[1]; [cmpd] 3.125 μM", "value": 80134.33}, {"measurement": "UltraGlo luciferase, S/B", "setting": "[1]; [cmpd] 3.125 μM", "value": 0.96}, {"measurement": "UltraGlo luciferase, Avg (luminescence)", "setting": "[1]; [cmpd] 6.25 μM", "value": 83064.33}, {"measurement": "UltraGlo luciferase, S/B", "setting": "[1]; [cmpd] 6.25 μM", "value": 1.00}, {"measurement": "UltraGlo luciferase, Avg (luminescence)", "setting": "[1]; [cmpd] 12.5 μM", "value": 82454.67}, {"measurement": "UltraGlo luciferase, S/B", "setting": "[1]; [cmpd] 12.5 μM", "value": 0.99}, {"measurement": "UltraGlo luciferase, Avg (luminescence)", "setting": "[1]; [cmpd] 25 μM", "value": 83084.00}, {"measurement": "UltraGlo luciferase, S/B", "setting": "[1]; [cmpd] 25 μM", "value": 1.00}, {"measurement": "UltraGlo luciferase, Avg (luminescence)", "setting": "[1]; [cmpd] 50 μM", "value": 81805.00}, {"measurement": "UltraGlo luciferase, S/B", "setting": "[1]; [cmpd] 50 μM", "value": 0.98}, {"measurement": "UltraGlo luciferase, Avg (luminescence)", "setting": "[1]; [cmpd] 100 μM", "value": 79847.67}, {"measurement": "UltraGlo luciferase, S/B", "setting": "[1]; [cmpd] 100 μM", "value": 0.96}, {"measurement": "UltraGlo luciferase, Avg (luminescence)", "setting": "[1]; [cmpd] 200 μM", "value": 77230.33}, {"measurement": "UltraGlo luciferase, S/B", "setting": "[1]; [cmpd] 200 μM", "value": 0.93}, {"measurement": "S/B, 1 hour", "setting": "[2]; [cmpd] final 0.09765625 μM", "value": 0.71}, {"measurement": "Avg (luminescence), 1 hour", "setting": "[2]; [cmpd] final 0.09765625 μM", "value": 112533}, {"measurement": "S/B, 1 hour", "setting": "[2]; [cmpd] final 0.1953125 μM", "value": 0.80}, {"measurement": "Avg (luminescence), 1 hour", "setting": "[2]; [cmpd] final 0.1953125 μM", "value": 126333}, {"measurement": "S/B, 1 hour", "setting": "[2]; [cmpd] final 0.390625 μM", "value": 0.88}, {"measurement": "Avg (luminescence), 1 hour", "setting": "[2]; [cmpd] final 0.390625 μM", "value": 138900}, {"measurement": "S/B, 1 hour", "setting": "[2]; [cmpd] final 0.78125 μM", "value": 0.61}, {"measurement": "Avg (luminescence), 1 hour", "setting": "[2]; [cmpd] final 0.78125 μM", "value": 95993}, {"measurement": "S/B, 1 hour", "setting": "[2]; [cmpd] final 1.5625 μM", "value": 0.41}, {"measurement": "Avg (luminescence), 1 hour", "setting": "[2]; [cmpd] final 1.5625 μM", "value": 65097}, {"measurement": "S/B, 1 hour", "setting": "[2]; [cmpd] final 3.125 μM", "value": 0.21}, {"measurement": "Avg (luminescence), 1 hour", "setting": "[2]; [cmpd] final 3.125 μM", "value": 33523}, {"measurement": "S/B, 1 hour", "setting": "[2]; [cmpd] final 6.25 μM", "value": 0.12}, {"measurement": "Avg (luminescence), 1 hour", "setting": "[2]; [cmpd] final 6.25 μM", "value": 19560}, {"measurement": "S/B, 1 hour", "setting": "[2]; [cmpd] final 12.5 μM", "value": 0.10}, {"measurement": "Avg (luminescence), 1 hour", "setting": "[2]; [cmpd] final 12.5 μM", "value": 15547}, {"measurement": "S/B, 1 hour", "setting": "[2]; [cmpd] final 25 μM", "value": 0.06}, {"measurement": "Avg (luminescence), 1 hour", "setting": "[2]; [cmpd] final 25 μM", "value": 9761}, {"measurement": "S/B, 1 hour", "setting": "[2]; [cmpd] final 50 μM", "value": 0.04}, {"measurement": "Avg (luminescence), 1 hour", "setting": "[2]; [cmpd] final 50 μM", "value": 6790}, {"measurement": "S/B, 1 hour", "setting": "[2]; [cmpd] final 100 μM", "value": 0.03}, {"measurement": "Avg (luminescence), 1 hour", "setting": "[2]; [cmpd] final 100 μM", "value": 5523}]}
